{
  "source": "patent US9926282B2",
  "about": "“Phthalazinones and isoquinolinones as rock inhibitors” (BRISTOL-MYERS SQUIBB COMPANY, priority 2013, dated 2018)",
  "key": {"[1]": {"target": "ROCK2 (Homo sapiens (Human), UniProt O75116)", "sequence (O75116 whole entry, species assumed)": "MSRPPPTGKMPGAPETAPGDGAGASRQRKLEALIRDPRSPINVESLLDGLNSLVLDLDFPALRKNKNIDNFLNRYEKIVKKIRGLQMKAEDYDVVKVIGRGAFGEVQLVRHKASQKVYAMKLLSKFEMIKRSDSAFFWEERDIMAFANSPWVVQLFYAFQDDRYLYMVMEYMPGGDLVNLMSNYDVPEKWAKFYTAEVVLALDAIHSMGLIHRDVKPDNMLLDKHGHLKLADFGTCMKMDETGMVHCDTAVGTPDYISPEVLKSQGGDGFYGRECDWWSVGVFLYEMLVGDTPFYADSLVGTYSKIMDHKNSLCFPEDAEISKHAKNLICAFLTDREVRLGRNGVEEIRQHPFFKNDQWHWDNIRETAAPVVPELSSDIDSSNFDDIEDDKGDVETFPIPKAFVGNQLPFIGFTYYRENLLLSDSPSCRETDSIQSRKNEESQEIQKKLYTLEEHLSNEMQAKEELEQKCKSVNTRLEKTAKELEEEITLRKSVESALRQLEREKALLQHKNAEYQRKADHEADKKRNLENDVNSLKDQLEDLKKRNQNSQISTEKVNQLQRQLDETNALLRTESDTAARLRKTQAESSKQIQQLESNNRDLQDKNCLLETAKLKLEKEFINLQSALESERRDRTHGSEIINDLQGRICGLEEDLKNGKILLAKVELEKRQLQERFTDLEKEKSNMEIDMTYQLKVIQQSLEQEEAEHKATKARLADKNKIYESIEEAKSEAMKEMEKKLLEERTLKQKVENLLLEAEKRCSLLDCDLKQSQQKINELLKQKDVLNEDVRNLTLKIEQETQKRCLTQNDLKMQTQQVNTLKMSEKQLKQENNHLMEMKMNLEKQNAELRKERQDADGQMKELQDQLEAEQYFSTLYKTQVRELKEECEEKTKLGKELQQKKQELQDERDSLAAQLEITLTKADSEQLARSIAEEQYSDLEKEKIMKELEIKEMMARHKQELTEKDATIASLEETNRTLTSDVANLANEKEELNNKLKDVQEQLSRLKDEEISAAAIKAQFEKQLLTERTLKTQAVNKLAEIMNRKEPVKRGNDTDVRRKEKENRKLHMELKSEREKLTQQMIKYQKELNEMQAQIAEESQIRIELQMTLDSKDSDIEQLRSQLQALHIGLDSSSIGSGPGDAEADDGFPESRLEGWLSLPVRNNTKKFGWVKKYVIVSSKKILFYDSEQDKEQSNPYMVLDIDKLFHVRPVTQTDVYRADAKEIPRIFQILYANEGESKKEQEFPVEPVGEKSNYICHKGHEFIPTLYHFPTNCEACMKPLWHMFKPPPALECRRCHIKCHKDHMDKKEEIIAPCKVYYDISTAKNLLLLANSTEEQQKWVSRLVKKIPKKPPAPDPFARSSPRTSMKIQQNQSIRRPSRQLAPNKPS", "assay": "ROCK assay (LABCHIP peptide phosphorylation), ROCK2", "type": "biochemical", "details": "5 μM ATP, 1.5 μM peptide substrate"}, "[2]": {"target": "ROCK1 (Homo sapiens (Human), UniProt Q13464)", "sequence (Q13464 whole entry, species assumed)": "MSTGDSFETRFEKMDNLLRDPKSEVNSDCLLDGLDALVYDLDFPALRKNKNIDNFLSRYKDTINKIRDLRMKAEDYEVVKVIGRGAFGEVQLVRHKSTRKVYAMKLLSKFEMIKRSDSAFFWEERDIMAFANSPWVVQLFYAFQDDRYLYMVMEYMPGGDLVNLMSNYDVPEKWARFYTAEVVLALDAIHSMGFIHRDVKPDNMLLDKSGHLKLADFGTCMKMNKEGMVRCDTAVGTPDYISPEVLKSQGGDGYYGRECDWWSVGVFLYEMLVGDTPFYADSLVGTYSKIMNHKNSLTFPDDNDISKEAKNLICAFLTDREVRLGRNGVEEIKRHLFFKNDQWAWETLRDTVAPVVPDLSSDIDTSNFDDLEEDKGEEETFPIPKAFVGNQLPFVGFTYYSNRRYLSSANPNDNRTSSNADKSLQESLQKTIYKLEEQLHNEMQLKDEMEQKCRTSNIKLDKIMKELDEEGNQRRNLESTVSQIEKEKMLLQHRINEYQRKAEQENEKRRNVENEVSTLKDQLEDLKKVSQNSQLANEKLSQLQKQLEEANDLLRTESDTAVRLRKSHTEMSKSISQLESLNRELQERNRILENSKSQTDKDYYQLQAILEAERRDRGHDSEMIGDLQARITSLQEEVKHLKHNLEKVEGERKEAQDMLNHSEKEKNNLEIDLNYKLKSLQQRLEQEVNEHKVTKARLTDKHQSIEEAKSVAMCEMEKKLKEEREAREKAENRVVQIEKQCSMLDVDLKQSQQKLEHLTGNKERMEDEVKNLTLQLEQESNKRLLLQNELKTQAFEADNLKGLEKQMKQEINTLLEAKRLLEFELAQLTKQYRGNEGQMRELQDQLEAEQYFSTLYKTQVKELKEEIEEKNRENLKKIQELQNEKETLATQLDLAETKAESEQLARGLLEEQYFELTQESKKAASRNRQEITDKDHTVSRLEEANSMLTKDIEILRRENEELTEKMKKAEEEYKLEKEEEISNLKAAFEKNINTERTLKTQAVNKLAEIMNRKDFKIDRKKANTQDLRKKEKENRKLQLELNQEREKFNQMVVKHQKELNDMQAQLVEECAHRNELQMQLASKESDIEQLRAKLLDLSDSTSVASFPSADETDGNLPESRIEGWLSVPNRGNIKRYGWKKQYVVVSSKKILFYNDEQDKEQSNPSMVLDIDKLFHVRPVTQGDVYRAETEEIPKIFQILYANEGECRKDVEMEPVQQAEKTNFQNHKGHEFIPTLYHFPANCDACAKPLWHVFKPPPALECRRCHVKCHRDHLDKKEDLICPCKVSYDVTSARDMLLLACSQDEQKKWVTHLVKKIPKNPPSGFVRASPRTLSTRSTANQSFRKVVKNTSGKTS", "assay": "ROCK assay (LABCHIP peptide phosphorylation), ROCK1", "type": "biochemical", "details": "5 μM ATP, 1.5 μM peptide substrate; read-out: ROCK1 IC50"}},
  "data": [
    {"smiles": "O=C(Nc1ccc(-c2n[nH]c(=O)c3ccccc23)cc1)c1cnn(C2C3CCC2CC3)c1", "note": "(stereo not drawn) [Example 392, 1-(Bicyclo[2.2.1]heptan-7-yl)-N-(4-(4-oxo-3,4-dihydrophthalazin-1-yl)phenyl)-1H-pyrazole-4-carboxamide]", "values": [
      {"measurement": "IC50", "setting": "[1]", "result": "0.0001 to 0.1", "unit": "µM"},
      {"measurement": "IC50", "setting": "[2]", "result": "0.0001 to 0.1", "unit": "µM"}
    ]},
    {"smiles": "CN(C)c1ccc2cc(C(=O)Nc3ccc(-c4n[nH]c(=O)c5ccccc45)cc3)[nH]c2c1", "note": "[Example 94, 6-(dimethylamino)-N-[4-(4-oxo-3,4-dihydrophthalazin-1-yl)phenyl]-1H-indole-2-carboxamide]", "values": [
      {"measurement": "IC50", "setting": "[1]", "result": "0.0001 to 0.1", "unit": "µM"},
      {"measurement": "IC50", "setting": "[2]", "result": "0.0001 to 0.1", "unit": "µM"}
    ]},
    {"smiles": "O=C(Nc1ccc(-c2n[nH]c(=O)c3ccccc23)cc1)c1cc2cc(Cl)cnc2[nH]1", "note": "[Example 119, 5-chloro-N-[4-(4-oxo-3,4-dihydrophthalazin-1-yl)phenyl]-1H-pyrrolo[2,3-b]pyridine-2-carboxamide]", "values": [
      {"measurement": "IC50", "setting": "[1]", "result": "0.0001 to 0.1", "unit": "µM"},
      {"measurement": "IC50", "setting": "[2]", "result": "0.101 to 1", "unit": "µM"}
    ]},
    {"smiles": "COc1cccc2cc(C(=O)Nc3ccc(-c4n[nH]c(=O)c5ccccc45)cc3)[nH]c12", "note": "[Example 129, 7-methoxy-N-[4-(4-oxo-3,4-dihydrophthalazin-1-yl)phenyl]-1H-indole-2-carboxamide]", "values": [
      {"measurement": "IC50", "setting": "[1]", "result": "0.0001 to 0.1", "unit": "µM"},
      {"measurement": "IC50", "setting": "[2]", "result": "0.0001 to 0.1", "unit": "µM"}
    ]},
    {"smiles": "CN(C)c1ccc(C(=O)Nc2ccc(-c3c[nH]c(=O)c4ccccc34)cc2)cc1", "note": "[Example 245, 4-(Dimethylamino)-N-(4-(1-oxo-1,2-dihydroisoquinolin-4-yl)phenyl)benzamide]", "values": [
      {"measurement": "IC50", "setting": "[1]", "result": "0.0001 to 0.1", "unit": "µM"},
      {"measurement": "IC50", "setting": "[2]", "result": "0.0001 to 0.1", "unit": "µM"}
    ]},
    {"smiles": "Cc1cc(C(=O)Nc2ccc(-c3n[nH]c(=O)c4ccccc34)cc2)nn1C(C)(C)C", "note": "[Example 235, 1-tert-butyl-5-methyl-N-[4-(4-oxo-3,4-dihydrophthalazin-1-yl)phenyl]-1H-pyrazole-3-carboxamide]", "values": [
      {"measurement": "IC50", "setting": "[1]", "result": "0.0001 to 0.1", "unit": "µM"},
      {"measurement": "IC50", "setting": "[2]", "result": "0.0001 to 0.1", "unit": "µM"}
    ]},
    {"smiles": "Cc1cc(NC(=O)c2nn(CC3CCN(CCCCO)CC3)c3ccccc23)ccc1-c1n[nH]c(=O)c2ccccc12", "note": "[Example 321, 1-((1-(4-Hydroxybutyl)piperidin-4-yl)methyl)-N-(3-methyl-4-(4-oxo-3,4-dihydrophthalazin-1-yl)phenyl)-1H-indazole-3-carboxamide]", "values": [
      {"measurement": "IC50", "setting": "[1]", "result": "0.101 to 1", "unit": "µM"},
      {"measurement": "IC50", "setting": "[2]", "result": "0.0001 to 0.1", "unit": "µM"}
    ]},
    {"smiles": "O=C(Nc1ccc(-c2n[nH]c(=O)c3ccccc23)cc1)c1nn(CC2CCN(C(=O)OCCF)CC2)c2ccccc12", "note": "[Example 350, 2-Fluoroethyl 4-[(3-{[4-(4-oxo-3,4-dihydrophthalazin-1-yl)phenyl]carbamoyl}-1H-indazol-1-yl)methyl]piperidine-1-carboxylate]", "values": [
      {"measurement": "IC50", "setting": "[1]", "result": "0.0001 to 0.1", "unit": "µM"},
      {"measurement": "IC50", "setting": "[2]", "result": "0.0001 to 0.1", "unit": "µM"}
    ]},
    {"smiles": "O=C(Nc1ccc(-c2n[nH]c(=O)c3ccccc23)cc1)c1nn(CCC(=O)N2CCOCC2)c2ccccc12", "note": "[Example 337, 1-(3-Morpholino-3-oxopropyl)-N-(4-(4-oxo-3,4-dihydrophthalazin-1-yl)phenyl)-1H-indazole-3-carboxamide]", "values": [
      {"measurement": "IC50", "setting": "[1]", "result": "0.0001 to 0.1", "unit": "µM"},
      {"measurement": "IC50", "setting": "[2]", "result": "0.0001 to 0.1", "unit": "µM"}
    ]},
    {"smiles": "O=C(Nc1ccc(-c2n[nH]c(=O)c3ccccc23)cc1)c1nn(CC2CCN(CCCCO)CC2)c2ccccc12", "note": "[Example 322, 1-((1-(4-Hydroxybutyl)piperidin-4-yl)methyl)-N-(4-(4-oxo-3,4-dihydrophthalazin-1-yl)phenyl)-1H-indazole-3-carboxamide]", "values": [
      {"measurement": "IC50", "setting": "[1]", "result": "0.101 to 1", "unit": "µM"},
      {"measurement": "IC50", "setting": "[2]", "result": "0.0001 to 0.1", "unit": "µM"}
    ]},
    {"smiles": "O=C(Nc1ccc(-c2n[nH]c(=O)c3ccccc23)c(CO)c1)c1nn(CC2CCCO2)c2ccccc12", "note": "(stereo not drawn) [Example 367, N-(3-(Hydroxymethyl)-4-(4-oxo-3,4-dihydrophthalazin-1-yl)phenyl)-1-((tetrahydrofuran-2-yl)methyl)-1H-indazole-3-carboxamide]", "values": [
      {"measurement": "IC50", "setting": "[1]", "result": "0.0001 to 0.1", "unit": "µM"},
      {"measurement": "IC50", "setting": "[2]", "result": "1 to 50", "unit": "µM"}
    ]},
    {"smiles": "CC(C)(O)Cn1nc(C(=O)Nc2ccc(-c3n[nH]c(=O)c4ccccc34)cc2)c2ccc(F)cc21", "note": "[Example 158, 6-fluoro-1-(2-hydroxy-2-methylpropyl)-N-[4-(4-oxo-3,4-dihydrophthalazin-1-yl)phenyl]-1H-indazole-3-carboxamide]", "values": [
      {"measurement": "IC50", "setting": "[1]", "result": "0.0001 to 0.1", "unit": "µM"},
      {"measurement": "IC50", "setting": "[2]", "result": "0.0001 to 0.1", "unit": "µM"}
    ]}
  ]
}
